Test results published in patent publication US8129389B2, “Substituted oxindole derivatives, medicaments containing the latter and use thereof” (Abbott GmbH & Co. KG, priority 2005, dated 2012).
Read-outs that look alike come from different tables or passages of the source.

Target: T1, human V1b receptors (Homo sapiens, UniProt P47901)
T1 construct: expressed in transfected cells
T1 sequence (P47901 1-424): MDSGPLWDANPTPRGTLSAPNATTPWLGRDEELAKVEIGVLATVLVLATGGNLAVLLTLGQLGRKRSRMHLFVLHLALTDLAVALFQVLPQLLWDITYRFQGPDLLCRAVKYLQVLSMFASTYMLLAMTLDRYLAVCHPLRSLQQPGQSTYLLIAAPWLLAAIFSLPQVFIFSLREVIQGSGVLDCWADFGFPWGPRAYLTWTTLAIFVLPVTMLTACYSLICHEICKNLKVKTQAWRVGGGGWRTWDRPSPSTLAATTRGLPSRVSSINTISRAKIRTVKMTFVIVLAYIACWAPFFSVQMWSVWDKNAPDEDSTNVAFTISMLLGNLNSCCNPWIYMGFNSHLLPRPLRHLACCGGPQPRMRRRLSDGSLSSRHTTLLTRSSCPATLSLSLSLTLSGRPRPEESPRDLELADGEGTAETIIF
Experiment: Vasopressin V1b receptor binding assay
Method: Vasopressin V1b Receptor Binding Assay:
These DMSO solutions were diluted 1:10 with assay buffer. The substance concentration was further diluted 1:10 in the assay mixture.
The nonspecific binding was determined with 10^−6 M AVP. Determinations in triplicate were carried out.
The affinities for the human vasopressin V1b receptor were measured, and affinity constants determined, in the above assay for the inventive examples.
The affinities of the compounds (I) of the invention for the human vasopressin V1b receptor were measured in accordance with the above assays, and the affinity constants (Ki) were determined. Table 1 below details the V1b receptor affinity of selected compounds (+++ means <10 nM and ++ means 10-100 nM).

[1] = Table 1, human vasopressin V1b receptor affinity, read-out: V1b Ki
[2] = membranes from CHO-K1 cells, 3H-AVP displacement, read-out: measured Ki values, affinities for the vasopressin V1b receptor

Ki [1] [nM] | Ki [2] [nM] | SMILES
< 10 | < 100 | CCOc1ccccc1C1(OC(=O)N2CCN(c3cc(C#N)ccn3)CC2)C(=O)N(S(=O)(=O)c2ccc(OC)cc2OC)c2ccc(C#N)cc21 (centres unmarked) [Example 26, 1-(2,4-Dimethoxybenzenesulfonyl)-5-cyano-2-oxo-3-(2-ethoxyphenyl)-2,3-dihydro-1H-indol-3-yl 4-(4-cyanopyridin-2-yl)piperazine-1-carboxylate]
10 to 100 | < 100 | CCOc1ccccc1C1(OC(=O)N2CCN(c3ncccn3)CC2)C(=O)N(S(=O)(=O)c2ccc(OC)cc2OC)c2ccc(C#N)cc21 (centres unmarked) [Example 27, 1-(2,4-Dimethoxybenzenesulfonyl)-5-cyano-2-oxo-3-(2-ethoxyphenyl)-2,3-dihydro-1H-indol-3-yl 4-(pyrimidin-2-yl)piperazin-1-carboxylate]
10 to 100 | < 100 | CCOc1ccccc1C1(OC(=O)N2CCN(c3cnccn3)CC2)C(=O)N(S(=O)(=O)c2ccc(OC)cc2OC)c2ccc(C#N)cc21 (centres unmarked) [Example 29, 1-(2,4-Dimethoxybenzenesulfonyl)-5-cyano-2-oxo-3-(2-ethoxyphenyl)-2,3-dihydro-1H-indol-3-yl 4-(pyrazin-2-yl)piperazine-1-carboxylate]
< 10 | < 100 | CCOc1ccccc1C1(OC(=O)N2CCN(c3nccs3)CC2)C(=O)N(S(=O)(=O)c2ccc(OC)cc2OC)c2ccc(C#N)cc21 (centres unmarked) [Example 30, 1-(2,4-Dimethoxybenzenesulfonyl)-5-cyano-2-oxo-3-(2-ethoxyphenyl)-2,3-dihydro-1H-indol-3-yl 4-(thiazol-2-yl)piperazine-1-carboxylate]
< 10 | < 100 | CCOc1ccccc1C1(NC(=O)N2CCN(c3nccs3)CC2)C(=O)N(S(=O)(=O)c2ccc(OC)cc2OC)c2ccc(C#N)cc21 (centres unmarked) [Example 31, 4-(Thiazol-2-yl)piperazine-1-[1-(2,4-dimethoxybenzenesulfonyl)-5-cyano-2-oxo-3-(2-ethoxyphenyl)-2,3-dihydro-1H-indol-3-yl]carboxamide]
10 to 100 | < 100 | CCOc1ccccc1C1(NC(=O)N2CCN(c3ncccc3C)CC2)C(=O)N(S(=O)(=O)c2ccc(OC)cc2OC)c2ccc(C#N)cc21 (centres unmarked) [Example 32, 4-(3-Methylpyridin-2-yl)piperazine-1-[1-(2,4-dimethoxybenzenesulfonyl)-5-cyano-2-oxo-3-(2-ethoxyphenyl)-2,3-dihydro-1H-indol-3-yl]carboxamide]
< 10 | < 100 | CCOc1ccccc1C1(NC(=O)N2CCN(c3ccc(C#N)cn3)CC2)C(=O)N(S(=O)(=O)c2ccc(OC)cc2OC)c2ccc(C#N)cc21 (centres unmarked) [Example 33, 4-(5-Cyanopyridin-2-yl)piperazine-1-[1-(2,4-dimethoxybenzenesulfonyl)-5-cyano-2-oxo-3-(2-ethoxyphenyl)-2,3-dihydro-1H-indol-3-yl]carboxamide]
< 10 | < 100 | CCOc1ccccc1C1(NC(=O)N2CCN(c3ncccn3)CC2)C(=O)N(S(=O)(=O)c2ccc(OC)cc2OC)c2ccc(C#N)cc21 (centres unmarked) [Example 34, 4-(Pyrimidin-2-yl)piperazine-1-[1-(2,4-dimethoxybenzenesulfonyl)-5-cyano-2-oxo-3-(2-ethoxyphenyl)-2,3-dihydro-1H-indol-3-yl]carboxamide]
10 to 100 | < 100 | CCOc1ccccc1C1(NC(=O)N2CCN(c3cnccn3)CC2)C(=O)N(S(=O)(=O)c2ccc(OC)cc2OC)c2ccc(C#N)cc21 (centres unmarked) [Example 35, 4-(Pyrazin-2-yl)piperazine-1-[1-(2,4-dimethoxybenzenesulfonyl)-5-cyano-2-oxo-3-(2-ethoxyphenyl)-2,3-dihydro-1H-indol-3-yl]carboxamide]
10 to 100 | < 100 | CCOc1ccccc1C1(OC(=O)N2CCN(c3nccs3)CC2)C(=O)N(S(=O)(=O)c2ccc(C#N)cc2)c2ccc(C#N)cc21 (centres unmarked) [Example 42, 1-(4-Cyanobenzenesulfonyl)-5-cyano-2-oxo-3-(2-ethoxyphenyl)-2,3-dihydro-1H-indol-3-yl 4-(thiazol-2-yl)piperazine-1-carboxylate]
10 to 100 | < 100 | CCOc1ccccc1C1(NC(=O)N2CCN(c3ccc(C#N)cn3)CC2)C(=O)N(S(=O)(=O)c2ccc([N+](=O)[O-])cc2)c2ccc(C#N)cc21 (centres unmarked) [Example 43, 4-(5-Cyanopyridin-2-yl)piperazine-1-[1-(4-nitrobenzenesulfonyl)-5-cyano-2-oxo-3-(2-ethoxyphenyl)-2,3-dihydro-1H-indol-3-yl]carboxamide]
10 to 100 | < 100 | CCOc1ccccc1C1(NC(=O)N2CCN(c3ccc(C#N)cn3)CC2)C(=O)N(S(=O)(=O)c2ccccc2OC)c2ccc(C#N)cc21 (centres unmarked) [Example 45, 4-(5-Cyanopyridin-2-yl)piperazine-1-[1-(2-methoxybenzenesulfonyl)-5-cyano-2-oxo-3-(2-ethoxyphenyl)-2,3-dihydro-1H-indol-3-yl]carboxamide]
10 to 100 | < 100 | CCOc1ccccc1C1(NC(=O)N2CCN(c3ccc(C#N)cn3)CC2)C(=O)N(S(=O)(=O)c2ccc(Cl)cc2)c2ccc(C#N)cc21 (centres unmarked) [Example 46, 4-(5-Cyanopyridin-2-yl)piperazine-1-[1-(4-chlorobenzenesulfonyl)-5-cyano-2-oxo-3-(2-ethoxyphenyl)-2,3-dihydro-1H-indol-3-yl]carboxamide]
10 to 100 | < 100 | CCOc1ccccc1C1(NC(=O)N2CCN(c3ccc(C#N)cn3)CC2)C(=O)N(S(=O)(=O)c2ccc(C#N)cc2)c2ccc(C#N)cc21 (centres unmarked) [Example 47, 4-(5-Cyanopyridin-2-yl)piperazine-1-[1-(4-cyanobenzenesulfonyl)-5-cyano-2-oxo-3-(2-ethoxyphenyl)-2,3-dihydro-1H-indol-3-yl]carboxamide]
10 to 100 | < 100 | CCOc1ccccc1C1(NC(=O)N2CCN(c3ccc(C#N)cn3)CC2)C(=O)N(S(=O)(=O)c2ccccc2)c2ccc(C#N)cc21 (centres unmarked) [Example 48, 4-(5-Cyanopyridin-2-yl)piperazine-1-[1-benzenesulfonyl-5-cyano-2-oxo-3-(2-ethoxyphenyl)-2,3-dihydro-1H-indol-3-yl]carboxamide]
– | < 100 | CCOc1ccccc1C1(NC(=O)N2CCN(c3ccc(C#N)cn3)CC2)C(=O)N(S(=O)(=O)c2ccccc2F)c2ccc(C#N)cc21 (centres unmarked) [Example 49, 4-(5-Cyanopyridin-2-yl)piperazin-1-[1-(2-fluorobenzenesulfonyl)-5-cyano-2-oxo-3-(2-ethoxyphenyl)-2,3-dihydro-1H-indol-3-yl]carboxamide]
10 to 100 | – | CCOc1ccccc1C1(NC(=O)N2CCN(c3ccc(C#N)cn3)CC2)C(=O)N(S(=O)(=O)c2ccc(C#N)cc2)c2ccc(C#N)cc21 (centres unmarked) [Example 50, 4-(5-Cyanopyridin-2-yl)piperazine-1-[1-(4-cyanobenzenesulfonyl)-5-cyano-2-oxo-3-(2-ethoxyphenyl)-2,3-dihydro-1H-indol-3-yl]carboxamide]
